Measurements taken from ChEMBL document CHEMBL1201862, “PubChem BioAssay data set” (2004).
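Cultured in 96-well plates, cells were exposed to test compound for 48 hours across five concentrations. Abbreviation: GI50, concentration required for 50% inhibition of growth.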 Active and inactive are the calls of the source. Cut-off read from the data, not from the text of the source: active = GI50 up to about 1.1 µM and inactive = higher.

Columns and labels:
Test in all cases: NCI tumour cell line growth inhibition, 48 h
786-0 = system: 786-0
A498 = system: A498
A549 = system: A549
ACHN = system: ACHN
CAKI-1 = system: CAKI-1
CCRF-CEM = system: CCRF-CEM
COLO 205 = system: COLO 205
DLD-1 = system: DLD-1
DMS-114 = system: DMS-114
EKVX = system: EKVX
HCC 2998 = system: HCC 2998
HCT-116 = system: HCT-116
HL-60 = system: HL-60
HOP-62 = system: HOP-62
HOP-92 = system: HOP-92
HT-29 = system: HT-29
IGROV-1 = system: IGROV-1
K562 = system: K562
KM-20L2 = system: KM-20L2
KM12 = system: KM12
LXFL 529 = system: LXFL 529
M14 = system: M14
M19-MEL = system: M19-MEL
MOLT-4 = system: MOLT-4
Malme-3M = system: Malme-3M
NCI-H226 = system: NCI-H226
NCI-H23 = system: NCI-H23
NCI-H460 = system: NCI-H460
NCI-H522 = system: NCI-H522
OVCAR-3 = system: OVCAR-3
OVCAR-4 = system: OVCAR-4
OVCAR-5 = system: OVCAR-5
OVCAR-8 = system: OVCAR-8
RPMI-8226 = system: RPMI-8226
SF-268 = system: SF-268
SF-295 = system: SF-295
SK-MEL-28 = system: SK-MEL-28
SK-MEL-2 = system: SK-MEL-2
SK-MEL-5 = system: SK-MEL-5
SK-OV-3 = system: SK-OV-3
SN12C = system: SN12C
SNB-19 = system: SNB-19
SNB-75 = system: SNB-75
SNB-78 = system: SNB-78
SR = system: SR
SW-620 = system: SW-620
TK-10 = system: TK-10
U-251 = system: U-251
UACC-257 = system: UACC-257
UACC-62 = system: UACC-62
UO-31 = system: UO-31
XF498 = system: XF498
DMS-273 = system: DMS-273
HCT-15 = system: HCT-15
HOP-18 = system: HOP-18
LOX IMVI = system: LOX IMVI
RXF 393 = system: RXF 393
SF-539 = system: SF-539

Cc1cccc2c1N(C(=O)/C=C\C(=O)O)C(c1c(C)[nH]c3ccccc13)C2 (centres undefined) was tested, and the GI50 (786-0) was 40.8 µM (inactive), the GI50 (A498) was > 100 µM (inactive) and the GI50 (A549) was > 100 µM (inactive). For the same compound, the GI50 (ACHN) was 84.3 µM (inactive), the GI50 (CAKI-1) was 30.3 µM (inactive) and the GI50 (CCRF-CEM) was 34.8 µM (inactive). The GI50 (COLO 205) was > 10 µM (inactive), the GI50 (DLD-1) was 33.6 µM (inactive) and the GI50 (DMS-114) was 19.9 µM (inactive). For the same compound, the GI50 (EKVX) was > 100 µM (inactive), the GI50 (HCC 2998) was 18.5 µM (inactive) and the GI50 (HCT-116) was 23.2 µM (inactive). The GI50 (HL-60) was 20.7 µM (inactive), the GI50 (HOP-62) was > 100 µM (inactive) and the GI50 (HOP-92) was 22.5 µM (inactive). The GI50 (HT-29) was > 100 µM (inactive), the GI50 (IGROV-1) was > 10 µM (inactive) and the GI50 (K562) was 36.6 µM (inactive). The GI50 (KM-20L2) was > 100 µM (inactive), the GI50 (KM12) was 33.5 µM (inactive) and the GI50 (LXFL 529) was 15.3 µM (inactive). The GI50 (M14) was 55.1 µM (inactive), the GI50 (M19-MEL) was 22.7 µM (inactive) and the GI50 (MOLT-4) was 31.2 µM (inactive). For the same compound, the GI50 (Malme-3M) was 20.1 µM (inactive), the GI50 (NCI-H226) was 49.3 µM (inactive) and the GI50 (NCI-H23) was 43.8 µM (inactive). The GI50 (NCI-H460) was > 100 µM (inactive), the GI50 (NCI-H522) was 18.5 µM (inactive) and the GI50 (OVCAR-3) was > 10 µM (inactive). The GI50 (OVCAR-4) was 57.7 µM (inactive), the GI50 (OVCAR-5) was > 100 µM (inactive) and the GI50 (OVCAR-8) was 55.6 µM (inactive). The GI50 (RPMI-8226) was 28.4 µM (inactive), the GI50 (SF-268) was > 10 µM (inactive) and the GI50 (SF-295) was 44.8 µM (inactive). For the same compound, the GI50 (SK-MEL-28) was 21.9 µM (inactive), the GI50 (SK-MEL-2) was 19.9 µM (inactive) and the GI50 (SK-MEL-5) was 18.2 µM (inactive). The GI50 (SK-OV-3) was 30.8 µM (inactive), the GI50 (SN12C) was 40.7 µM (inactive) and the GI50 (SNB-19) was 36.2 µM (inactive). The GI50 (SNB-75) was > 10 µM (inactive), the GI50 (SNB-78) was 31.2 µM (inactive) and the GI50 (SR) was 31 µM (inactive). For the same compound, the GI50 (SW-620) was 28.4 µM (inactive), the GI50 (TK-10) was 73.5 µM (inactive) and the GI50 (U-251) was > 10 µM (inactive). For the same compound, the GI50 (UACC-257) was 33.8 µM (inactive), the GI50 (UACC-62) was 18.9 µM (inactive) and the GI50 (UO-31) was > 100 µM (inactive). The GI50 (XF498) was 21.9 µM (inactive).
With COc1cc(Nc2cnc3ccc(C(F)(F)F)cc3n2)cc(OC)c1OC the GI50 (786-0) was 13.5 µM (inactive), the GI50 (A549) was 20.4 µM (inactive) and the GI50 (ACHN) was 9.95 µM (inactive). For the same compound, the GI50 (CCRF-CEM) was 24.7 µM (inactive), the GI50 (COLO 205) was 6.18 µM (inactive) and the GI50 (DMS-273) was 25.5 µM (inactive). For the same compound, the GI50 (EKVX) was > 100 µM (inactive), the GI50 (HCC 2998) was 4.43 µM (inactive) and the GI50 (HCT-116) was 45.8 µM (inactive). The GI50 (HCT-15) was 3.95 µM, the GI50 (HL-60) was 9.71 µM (inactive) and the GI50 (HOP-18) was > 100 µM (inactive). The GI50 (HOP-62) was 23.9 µM (inactive), the GI50 (HOP-92) was 4.82 µM (inactive) and the GI50 (HT-29) was 12.2 µM (inactive). For the same compound, the GI50 (KM-20L2) was 3.79 µM (inactive), the GI50 (LOX IMVI) was 4.02 µM (inactive) and the GI50 (LXFL 529) was 27.4 µM (inactive). The GI50 (M19-MEL) was 13.6 µM (inactive), the GI50 (MOLT-4) was 39.7 µM (inactive) and the GI50 (Malme-3M) was > 100 µM (inactive). For the same compound, the GI50 (NCI-H226) was > 100 µM (inactive), the GI50 (NCI-H23) was > 100 µM (inactive) and the GI50 (NCI-H460) was 12.9 µM (inactive). For the same compound, the GI50 (OVCAR-3) was > 100 µM (inactive), the GI50 (OVCAR-5) was > 100 µM (inactive) and the GI50 (OVCAR-8) was > 100 µM (inactive). For the same compound, the GI50 (RPMI-8226) was 15.3 µM (inactive), the GI50 (RXF 393) was 68.4 µM (inactive) and the GI50 (SF-268) was 84.5 µM (inactive). For the same compound, the GI50 (SF-295) was 5.53 µM (inactive), the GI50 (SF-539) was 32.1 µM (inactive) and the GI50 (SK-MEL-28) was > 100 µM (inactive). The GI50 (SK-MEL-2) was 24.7 µM (inactive), the GI50 (SN12C) was > 100 µM (inactive) and the GI50 (SNB-19) was > 100 µM (inactive). The GI50 (SNB-78) was > 100 µM (inactive), the GI50 (SR) was > 100 µM (inactive) and the GI50 (SW-620) was 71.8 µM (inactive). The GI50 (TK-10) was 38.1 µM (inactive), the GI50 (U-251) was > 100 µM (inactive) and the GI50 (UACC-257) was 9.84 µM (inactive). For the same compound, the GI50 (UO-31) was 67.1 µM (inactive).
CC1CCSC(N(C(=O)N(C)c2ccccc2)c2ccccc2)=N1 (centres undefined) was tested, and the GI50 (786-0) was > 100 µM (inactive), the GI50 (A498) was > 100 µM (inactive) and the GI50 (A549) was > 100 µM (inactive). The GI50 (ACHN) was > 100 µM (inactive), the GI50 (CAKI-1) was > 100 µM (inactive) and the GI50 (CCRF-CEM) was > 100 µM (inactive). For the same compound, the GI50 (COLO 205) was > 100 µM (inactive), the GI50 (DLD-1) was > 100 µM (inactive) and the GI50 (DMS-114) was > 100 µM (inactive). The GI50 (DMS-273) was > 100 µM (inactive), the GI50 (EKVX) was > 100 µM (inactive) and the GI50 (HCC 2998) was > 100 µM (inactive). The GI50 (HCT-116) was > 100 µM (inactive), the GI50 (HCT-15) was > 100 µM and the GI50 (HL-60) was > 100 µM (inactive). For the same compound, the GI50 (HOP-62) was > 100 µM (inactive), the GI50 (HT-29) was > 100 µM (inactive) and the GI50 (IGROV-1) was > 100 µM (inactive). For the same compound, the GI50 (K562) was > 100 µM (inactive), the GI50 (KM-20L2) was > 100 µM (inactive) and the GI50 (KM12) was > 100 µM (inactive). For the same compound, the GI50 (LOX IMVI) was > 100 µM (inactive), the GI50 (LXFL 529) was > 100 µM (inactive) and the GI50 (M14) was > 100 µM (inactive). For the same compound, the GI50 (M19-MEL) was > 100 µM (inactive), the GI50 (MOLT-4) was > 100 µM (inactive) and the GI50 (Malme-3M) was > 100 µM (inactive). For the same compound, the GI50 (NCI-H226) was 74.1 µM (inactive), the GI50 (NCI-H23) was > 100 µM (inactive) and the GI50 (NCI-H460) was > 100 µM (inactive). For the same compound, the GI50 (NCI-H522) was > 100 µM (inactive), the GI50 (OVCAR-3) was > 100 µM (inactive) and the GI50 (OVCAR-5) was > 100 µM (inactive). The GI50 (OVCAR-8) was > 100 µM (inactive), the GI50 (RPMI-8226) was > 100 µM (inactive) and the GI50 (RXF 393) was > 100 µM (inactive). For the same compound, the GI50 (SF-268) was > 100 µM (inactive), the GI50 (SF-295) was > 100 µM (inactive) and the GI50 (SF-539) was > 100 µM (inactive). For the same compound, the GI50 (SK-MEL-28) was > 100 µM (inactive), the GI50 (SK-MEL-2) was > 100 µM (inactive) and the GI50 (SK-MEL-5) was > 100 µM (inactive). The GI50 (SK-OV-3) was > 100 µM (inactive), the GI50 (SN12C) was > 100 µM (inactive) and the GI50 (SNB-19) was > 100 µM (inactive). For the same compound, the GI50 (SNB-75) was > 100 µM (inactive), the GI50 (SNB-78) was > 100 µM (inactive) and the GI50 (SW-620) was > 100 µM (inactive). For the same compound, the GI50 (TK-10) was > 100 µM (inactive), the GI50 (U-251) was > 100 µM (inactive) and the GI50 (UACC-257) was > 100 µM (inactive). The GI50 (UACC-62) was > 100 µM (inactive), the GI50 (UO-31) was > 100 µM (inactive) and the GI50 (XF498) was > 100 µM (inactive).
